The assay addresses T1, human GluR2 flip (unedited) AMPA receptor subunit (Homo sapiens, UniProt P42262).
T1 construct: expressed in transfected cells; host or cells: HEK 293 cells, stably expressing or transiently transfected
The experiment in a line: Calcium influx fluorescence assay (FLUO4, FLIPR). Format: cell-based. The following applies: HEK 293 cells expressing human GluR2 flip (unedited); 100 μM glutamate; peak fluorescence. As to the method:
The ability of the compounds of the invention to potentiate glutamate receptor-mediated response were determined a) by using fluorescent calcium-indicator dyes such as FLUO4 and additionally for some example compounds, b) by measuring glutamate-evoked current recorded from human GluR2 flip unedited HEK293 cells. • a) Calcium Influx Fluorescence Assay
384 well plates were prepared containing confluent monolayer of HEK 293 cells either stably expressing or transiently transfected with human GluR2 flip (unedited) AMPA receptor subunit. These cells form functional homotetrameric AMPA receptors. […]
The cell plate was then transferred into a fluorescence imaging plate based reader [such as the FLIPR384 (Molecular Devices)]. A baseline fluorescence reading was taken over a 10 to 240 second period, and then 10 μL from each plate containing a compound of the invention made up in standard buffer solution (in a concentration range from 100 μM to 10 pM) was added (to give a final concentration in the range 30 μM to 3 pM). The fluorescence was read over 5 minute period. […] The fluoresecence was then read over a 4 minute period. The activities of the compounds of the invention and reference compounds were determined by measuring peak fluorescence after the last addition. […]

T1 sequence (P42262 25-883 isoform P42262-2 limits assumed): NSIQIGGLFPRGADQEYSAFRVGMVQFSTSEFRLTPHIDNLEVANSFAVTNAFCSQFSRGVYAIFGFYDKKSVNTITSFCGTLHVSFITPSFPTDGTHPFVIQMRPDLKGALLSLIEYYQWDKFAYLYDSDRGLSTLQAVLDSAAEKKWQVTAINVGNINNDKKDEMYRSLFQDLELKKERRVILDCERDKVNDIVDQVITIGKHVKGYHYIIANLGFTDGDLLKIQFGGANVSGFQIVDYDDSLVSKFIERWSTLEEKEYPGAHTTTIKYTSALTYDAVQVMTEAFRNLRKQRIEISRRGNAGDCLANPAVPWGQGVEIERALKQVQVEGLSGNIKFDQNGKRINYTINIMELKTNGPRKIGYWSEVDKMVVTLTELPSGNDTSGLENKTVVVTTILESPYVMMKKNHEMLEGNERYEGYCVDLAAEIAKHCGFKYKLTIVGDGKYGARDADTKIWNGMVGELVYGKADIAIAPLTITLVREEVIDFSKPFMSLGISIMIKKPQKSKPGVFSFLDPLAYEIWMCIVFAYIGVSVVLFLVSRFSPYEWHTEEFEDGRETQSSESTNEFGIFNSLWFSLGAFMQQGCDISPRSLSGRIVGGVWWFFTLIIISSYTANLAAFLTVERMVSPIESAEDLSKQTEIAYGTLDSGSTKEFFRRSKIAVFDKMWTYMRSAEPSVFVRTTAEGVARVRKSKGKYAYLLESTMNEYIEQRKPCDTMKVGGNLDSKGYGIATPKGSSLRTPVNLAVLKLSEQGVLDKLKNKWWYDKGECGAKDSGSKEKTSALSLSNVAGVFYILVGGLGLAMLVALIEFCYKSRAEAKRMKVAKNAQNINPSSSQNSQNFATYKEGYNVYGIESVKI

`CC(C)S(=O)(=O)NC1Cc2ccc(-c3ccsc3)cc2C1` (stereo not shown) [Example 4, N-[5-(3-thienyl)-2,3-dihydro-1H-inden-2-yl]-2-propanesulfonamide]: the EC50 (as a rule, the concentration that produces a half-maximal response) was 10 µM.

Values taken from US7572819B2, “Compounds which potentiate glutamate receptor and uses thereof in medicine” (Glaxo Group Limited, priority 2004, dated 2009).
